According to patent publication US20070015818A1, “Cyclic sulfone containing retroviral protease inhibitors” (G.D. Searle & Co. (now G.D. Searle, LLC), priority 1995, published 2007):
pEC50: −log10 of the molar value.

System: HIV
Assay: EC50 of Table 1 (antiviral activity, method not described)
Type: cell-based
Settings: Human immunodeficiency virus 1

Row | Compound | pEC50
1 | CC(C)CCN(C[C@@H](O)[C@H](Cc1ccccc1)NC(=O)C1CCCS(=O)(=O)C1)C(=O)NC(C)(C)Cn1ccnc1 (stereo partly drawn) [Example 4a] | 6.53
2 | CC(C)(C)NC(=O)[C@@H]1C[C@@H]2CCCC[C@@H]2CN1C[C@@H](O)[C@H](Cc1ccccc1)NC(=O)C1CCCS(=O)(=O)C1 (stereo partly drawn) [Example 7] | 7.92
3 | CC(C)CCN(C[C@@H](O)[C@H](Cc1ccccc1)NC(=O)C1CCCS(=O)(=O)C1)S(=O)(=O)c1ccccc1 (stereo partly drawn) [Example 8] | 7.72
